The nature of data set [1]: Clearance in Sprague-Dawley rat at […], iv measured after 24 hrs by LC/MS/MS method. In kind it is ADME, organism-based. As to conditions: in vivo.
Another data set relates to Hepatitis B virus. Kind of data set: Antiviral activity against genotype D HBV infected in sodium taurocholate co-transporting polypeptide receptor-expressing stable HepG2 cell line assessed as suppression of HBsAg level incubated for 5 days by multiplex chemiluminescent MSD assay. In kind it is functional, organism-based. Particulars: HepG2, 120 h.
A short description of data set [2]: Oral bioavailability in Sprague-Dawley rat after 24 hrs by LC/MS/MS method. It counts as ADME, organism-based. Particulars: in vivo.
For data set [3], the system named is Primary hepatocyte. Kind of data set: Effect on cccDNA level in HBV infected primary human hepatocyte at 0.25 uM media replaced for every 2 to 3 days incubated for 12 days by Southern blot analysis. As to conditions: Hepatitis B virus, time 12.0 day. In kind it is functional, cell-based.
The nature of data set [4]: Lipophilicity, logD of the compound. It counts as physicochemical. Particulars: octanol/water.
Data set [5] can be described thus: In vivo clearance in rat. It counts as ADME, organism-based.
Data set [6] can be described thus: Hepatic extraction in rat. It counts as ADME. As to conditions: read-out: ERH.
Data set [7] is described as follows: Hepatic extraction in dog. It counts as ADME, Canis lupus familiaris. As to conditions: read-out: ERH.
Data set [8] can be described thus: Hepatic extraction in cynomolgus monkey. In kind it is ADME, Macaca fascicularis. Particulars: read-out: ERH.
The nature of data set [9]: In vivo clearance in dog. In kind it is ADME, organism-based, Canis lupus familiaris.
A short description of data set [10]: In vivo clearance in cynomolgus monkey. It counts as ADME, organism-based, Macaca fascicularis.
Data set [11] can be described thus: Oral bioavailability in rat at 5 mg/kg. In kind it is ADME, organism-based. Particulars: in vivo.
Data set [12] is described as follows: Oral bioavailability in cynomolgus monkey at 5 mg/kg. It counts as ADME, organism-based, Macaca fascicularis. As to conditions: in vivo.
A short description of data set [13]: Oral bioavailability in dog at 5 mg/kg. It counts as ADME, organism-based, Canis lupus familiaris. As to conditions: in vivo.
Data set [14] relates to Primary hepatocyte. Put plainly: Effect on cccDNA level in HBV infected primary human hepatocyte at 0.5 uM media replaced for every 2 to 3 days incubated for 12 days by Southern blot analysis. It counts as functional, cell-based. Particulars: Hepatitis B virus, time 12.0 day.

We go through 42 compounds from ChEMBL document CHEMBL5335870, “Discovery of Hepatitis B Virus Surface Antigen Suppressor GS-8873” (ACS Med Chem Lett, 2024).

Activity calls are given as the source filed them. The rule behind the calls is not given here.

One may read the clearance as the volume of plasma or blood freed of the substance per unit of time. One may read the EC50 as the concentration needed to bring the measured effect to its halfway point. In the case of `CC(C)(C)N1Cc2cc(OCC3COC3)c(Cl)cc2-c2cc(=O)c(C(=O)O)cn21`, the clearance in data set [1] was 20 mL/min/kg. The EC50 with Hepatitis B virus was found to be 7.6 nM. Moreover, the bioavailability in data set [2] turned out to be 91%.
As to `CC(C)(C)N1Cc2cc(C#CC3CC3)c(Cl)cc2-c2cc(=O)c(C(=O)O)cn21`, the EC50 in the data set on Hepatitis B virus was determined as 16 nM.
As to `COCCCOc1cc2c(cc1OC(C)(C)C)-c1cc(=O)c(C(=O)O)cn1N1[C@@H]2CCC1(C)C`, in the data set on Hepatitis B virus, the EC50 was 78 nM.
For `COCCCOc1cc2c(cc1Cl)-c1cc(=O)c(C(=O)O)cn1N1CC(C)(C)C[C@H]21`, the concentration for a half-maximal effect (EC50) with Hepatitis B virus worked out at 41 nM.
Still for that read-out and setting: the result for `COCCCOc1cc2c(cc1Cl)-c1cc(=O)c(C(=O)O)cn1N1[C@@H]2CC1(C)C` reads 4 nM.
In data set [1], `COCCCOc1cc2c(cc1OC(C)C)-c1cc(=O)c(C(=O)O)cn1N1[C@@H]2CCC1(C)C` gave a clearance of 16.2 mL/min/kg. Also, the half-maximal effective concentration (EC50) in the data set with Hepatitis B virus came to 6.4 nM. In addition, the bioavailability in data set [2] came to 95%.
What is called logD is the decadic logarithm of the distribution of all forms, ionised or not, between an organic phase and buffer at a given pH. In the case of `COCCCOc1cc2c(cc1Cl)-c1cc(=O)c(C(=O)O)cn1[C@H](C1(C)CC1)C2`, in the data set on Hepatitis B virus, the EC50 was determined as 3.8 nM. Moreover, in the data set with Primary hepatocyte [3], the result was inactive. The compound further gave a log distribution coefficient (logD) in [4] of 2.4.
For `COCCOCc1cc2c(cc1Cl)-c1cc(=O)c(C(=O)O)cn1N(C(C)(C)C)C2`, in the data set with Hepatitis B virus, the EC50 turned out to be 210 nM.
Still for that read-out and setting: the result for `COCCCOc1cc2c(cc1Cl)-c1cc(=O)c(C(=O)O)cn1N(C(C)(C)C)[C@H]2C` reads 97 nM.
`COCCCOc1cc2c(cc1Cl)-c1cc(=O)c(C(=O)O)cn1N1[C@@H]2COCC1(C)C`: the EC50 in the data set with Hepatitis B virus was 2.9 nM.
As to `COCCCOc1cc2c(cc1OCC(F)F)-c1cc(=O)c(C(=O)O)cn1N1[C@@H]2CCC1(C)C`, in [1], the clearance was 13.8 mL/min/kg. In addition, the concentration giving a half-maximal response (EC50) with Hepatitis B virus was 5.8 nM. Moreover, in data set [2], the bioavailability worked out at 58%.
Take `COCCCOc1cc2c(cc1OC)-c1cc(=O)c(C(=O)O)cn1C(C1(C)CC1)C2` (stereo not given): the logD in data set [4] came to 2.2.
On to `COCCCOc1cc2c(cc1C1COC1)-c1cc(=O)c(C(=O)O)cn1N1[C@@H]2CCC1(C)C`, for which the EC50 with Hepatitis B virus came to 13 nM.
On the same count and under the same terms, the figure for `COCCCNc1cc2c(cc1Cl)-c1cc(=O)c(C(=O)O)cn1N(C(C)(C)C)C2` is 18 nM.
As for `CC(C)(C)N1Cc2cc(OCC3CC(F)(F)C3)c(Cl)cc2-c2cc(=O)c(C(=O)O)cn21`, in [1], the clearance is 4.17 mL/min/kg. Moreover, in the data set on Hepatitis B virus, the EC50 worked out at 12 nM. Besides, the bioavailability in data set [2] was determined as 56%.
For `COCCCOc1cc2c(cc1OC(F)F)-c1cc(=O)c(C(=O)O)cn1N1[C@@H]2CCC1(C)C`, in that order: 9 mL/min/kg, 0.97 nM and 60%.
`COCCCOc1cc2c(cc1Cl)-c1cc(=O)c(C(=O)O)cn1N1CCC(C)(C)[C@H]21`: in the data set with Hepatitis B virus, the EC50 stood at 12 nM.
As for `CCc1cc2c(cc1OCCCOC)[C@H]1CCC(C)(C)N1n1cc(C(=O)O)c(=O)cc1-2`, in the data set with Hepatitis B virus, the concentration for a half-maximal effect (EC50) worked out at 0.45 nM.
Consider `CN(C)CCCOc1cc2c(cc1Cl)-c1cc(=O)c(C(=O)O)cn1N(C(C)(C)C)C2`, for which the EC50 in the data set with Hepatitis B virus was 620 nM.
Same read-out and setting: the figure for `COCCCOc1cc2c(cc1Cl)-c1cc(=O)c(C(=O)O)cn1N1[C@H](C)CC[C@H]21` is 11 nM.
On the same count and under the same terms, the figure for `COCCCOc1cc2c(cc1OCCCOC)[C@H]1CCC(C)(C)N1n1cc(C(=O)O)c(=O)cc1-2` is 11 nM.
The same measure, in the same setting: the figure for `CC(C)(C)N1Cc2cc(N3CCCC3)c(Cl)cc2-c2cc(=O)c(C(=O)O)cn21` is 1 nM.
On to `COCCCOc1cc2c(cc1OC(F)(F)F)-c1cc(=O)c(C(=O)O)cn1N1[C@@H]2CCC1(C)C`, for which the clearance in [1] is 8 mL/min/kg. In the data set on Hepatitis B virus, the 50% effective concentration (EC50) amounted to 1.1 nM. In data set [2], the bioavailability worked out at 47%.
With `CC(C)(C)N1Cc2cc(OCCCOc3cnn(C(F)F)c3)c(Cl)cc2-c2cc(=O)c(C(=O)O)cn21`, the clearance in [1] was 25 mL/min/kg. Further, the EC50 in the data set on Hepatitis B virus was found to be 3.9 nM.
With `COCCCOc1cc2c(cc1Cl)-c1cc(=O)c(C(=O)O)cn1N1[C@H]2CCC1(C)C`, the EC50 with Hepatitis B virus is 420 nM.
In the case of `COCCCOc1cc2c(cc1Cl)-c1cc(=O)c(C(=O)O)cn1N1[C@@H]2CCCC1(C)C`, in the data set with Hepatitis B virus, the EC50 was 2 nM.
For `COCCCOc1cc2c(cc1Cl)-c1cc(=O)c(C(=O)O)cn1[C@H](C(C)(C)C)C2`, the clearance was 5 mL/min/kg in data set [5], 6 mL/min/kg in [9] and 2.83 mL/min/kg in data set [10]. In addition, the hepatic extraction ratio in data set [6] came to 0.071; in data set [7], 0.2; in [8], 0.11. Further, the EC50 with Hepatitis B virus is 150 nM. In addition, the bioavailability in data set [11] was 41%; in data set [12], 120%. Besides, the pH-dependent lipophilicity (logD) in [4] was determined as 2.5.
For the compound `CCOc1cc2c(cc1OCCCOC)[C@H]1CCC(C)(C)N1n1cc(C(=O)O)c(=O)cc1-2`, in data set [1], the clearance was 20 mL/min/kg. Besides, in the data set on Hepatitis B virus, the EC50 stood at 7.5 nM. In addition, the bioavailability in data set [2] is greater than 100%.
Take `COCCCOc1cc2c(cc1Cl)-c1cc(=O)c(C(=O)O)cn1N1CCC[C@H]21`: the EC50 with Hepatitis B virus amounted to 55 nM.
Compound `COCCCOc1cc2c(cc1OC)-c1cc(=O)c(C(=O)O)cn1N1[C@@H]2CCC1(C)C` showed a clearance in [1] of 16.7 mL/min/kg. The half-maximal effective concentration (EC50) with Hepatitis B virus came out at 2.1 nM. Moreover, in data set [2], the bioavailability worked out at 84%.
For `CC(C)(C)N1Cc2cc(C#Cc3ccc(N4CC5CCC(C4)O5)nc3)c(Cl)cc2-c2cc(=O)c(C(=O)O)cn21`, the 50% effective concentration (EC50) with Hepatitis B virus came out at 1.5 nM.
Turning to `COCCCOc1cc2c(cc1OC)-c1cc(=O)c(C(=O)O)cn1[C@H](C(C)C)C2`, the clearance in data set [5] is 18.3 mL/min/kg; in data set [9], 11.2 mL/min/kg; in data set [10], 11.3 mL/min/kg. Besides, the results for the hepatic extraction ratio in data set [6], in [7] and in [8] were 0.26, 0.37 and 0.43, respectively. In addition, in the data set with Hepatitis B virus, the EC50 turned out to be 15 nM. Also, the bioavailability in [11] stood at 56%; in data set [12], 84%; in data set [13] it was 90%. Further, the logD in data set [4] was 2.1.
In the case of `CC(C)(C)N1Cc2cc(-c3ccccn3)c(Cl)cc2-c2cc(=O)c(C(=O)O)cn21`, the EC50 with Hepatitis B virus worked out at 47 nM.
In the case of `COCCCOc1cc2c(cc1Cl)-c1cc(=O)c(C(=O)O)cn1N1[C@@H]2CCC12COC2`, the EC50 in the data set on Hepatitis B virus was determined as 72 nM.
The same measure, in the same setting: the result for `COCCCOc1cc2c(cc1S(C)(=O)=O)-c1cc(=O)c(C(=O)O)cn1N1[C@@H]2CCC1(C)C` reads 52 nM; that for `COCCCOc1cc2c(cc1Cl)-c1cc(=O)c(C(=O)O)cn1N(C(C)(C)C)[C@@H]2C`, 390 nM; that for `COCCCOc1cc2c(cc1Cl)-c1cc(=O)c(C(=O)O)cn1N1[C@@H]2CC[C@@H]1C`, 5.4 nM.
Regarding `COCCCOc1cc2c(cc1C1CC1)-c1cc(=O)c(C(=O)O)cn1N1[C@@H]2CCC1(C)C`, the clearance in data set [1] is 16.7 mL/min/kg. The EC50 in the data set with Hepatitis B virus came to 0.78 nM.
In data set [1], `CC(C)(C)N1Cc2cc(C#Cc3cnc(N4CC5CCC(C4)N5C4COC4)nc3)c(Cl)cc2-c2cc(=O)c(C(=O)O)cn21` had a clearance of 15 mL/min/kg. In the data set with Hepatitis B virus, the 50% effective concentration (EC50) is 2.1 nM. Further, the bioavailability in data set [2] came to 30%.
Regarding `COCCCOc1cc2c(cc1Cl)-c1cc(=O)c(C(=O)O)cn1N1[C@@H]2CCC1(C)C`, in data set [1], the clearance is 4.5 mL/min/kg. Also, the EC50 in the data set with Hepatitis B virus came to 1.7 nM. Also, the bioavailability in data set [2] was 66%.
For the compound `C[C@H](Cn1cnc2c(N)ncnc21)OCP(=O)(O)O`, in the data set on Primary hepatocyte [14], the result was inactive.
For the compound `COCCCOc1cc2c(cc1Cl)-c1cc(=O)c(C(=O)O)cn1N1[C@@H]2CCC12CC2`, the EC50 in the data set on Hepatitis B virus is 1 nM.
